Assay [1] has as its system H1N1 (influenza A/New Caledonia/20/99). The assay can be described thus: microbe, parasite or virus in culture. The format is cell-based. The conditions noted are these: H1N1, A549, 48 h.
The target in assay [2] is T1, CISD1 Gene Product (mitoNEET) (Homo sapiens, UniProt Q9NZ45).
T1 sequence (Q9NZ45 33-108 limits assumed): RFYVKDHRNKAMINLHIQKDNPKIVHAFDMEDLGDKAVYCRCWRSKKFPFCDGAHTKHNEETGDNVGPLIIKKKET
The assay can be described thus: Stability of Fe-S cluster binding of purified NEET protein (absorbance 458 nm). It is filed as biochemical. The conditions noted are these: for Time (in minutes) to achieve 50% loss of bound cluster (Absorbance 458 nm) / Residual cluster bound at end of experiment (Percentage Absorbance 458 nm at time zero): mitoNEET 20 μM, compound 60 μM; for Time (in minutes) to achieve 50% loss of bound cluster (Absorbance 458 nm): pH 6, 37° C., run time 180 minutes, vehicle control 80; for Residual cluster bound at end of experiment (Percentage Absorbance 458 nm at time zero): pH 6, at 180 minutes, vehicle control 16%. On the procedure:
(§1) The modulator effect on the NEET proteins encoded by human CISD1, CISD2, and CISD3 genes by the compounds of the invention has been tested and is reported below. Particularly, the biochemical function of the NEET proteins is measured by the stability of Fe—S cluster binding of the purified NEET proteins.
(§2) The Fe—S cluster binding capacity of NEET proteins is known to be coordinated by four amino-acids in a stretch of 16 (three Cysteine and one Histidine). As the lability of the Fe—S cluster of NEET proteins is sensitive to the environment, cluster stability measurements are one of the measures of interactions of NEET proteins with small molecules and compounds. NEET protein/2Fe-2S cluster stability can be assessed by monitoring the decay in absorbance of its characteristic 458-nm peak (characteristic of the oxidized 2Fe-2S cluster) over time. Each NEET protein (mitoNEET, NAF-1 and Miner 2) was tested for its Fe—S binding in the absence or presence of a compound according to the invention (see table 4 below). The rate of cluster release (time in minutes to achieve 50% loss of bound Fe—S cluster) was compared for each NEET protein in the presence of one of the compounds of the invention (in a 1:3 protein:compound molar ratio) relative to each protein alone.
(§3) At pH 6, all the three NEET proteins (mitoNEET, NAF-1 and Miner 2) have a characteristic rate of loss of the bound Fe—S cluster that can be measured by the decrease of absorbance at wavelength 458 nm over time, using a spectrophotometer. Thus, Bis-Tris buffer (100 mM Bis-Tris pH6, 100 mM Nacl) was used at pH 6 to dilute either DMSO (Blank sample: Bis-Tris Buffer pH 6, 66 μM DMSO), DMSO and one of the three NEET proteins (Control sample: Bis-Tris Buffer pH 6, 66 μM DMSO, 20 μM purified NEET protein) or DMSO, one of the three NEET proteins and a compound of the invention (Test sample: Bis-Tris Buffer pH 6, 66 μM DMSO, 20 μM purified NEET protein, 60 μM compound of the invention).
(§4) A reaction mix containing DMSO diluted in the Bis-Tris Buffer with or without a compound of the invention was prepared. The purified NEET protein was the last component added to the reaction mix which was then aliquoted into 4 replicates in 96 wells plates. The absorbance at wavelength 458 nm was taken at 5 minutes intervals at 37° C. with a spectrofluorimeter. The assay run time for CISD2 gene product (NAF-1) was 500 minutes and 180 minutes for both the CISD1gene product (mitoNEET) and the CISD3 gene product (Miner2).
(§5) In addition to time monitoring, residual bound Fe—S cluster to NEET protein was measured at the final point of the spectrometry assay for each Test sample and compared to the Control sample data (in parenthesis table 4). This residual binding is measured by the differential percentage between the absorbance 458 nm at time zero and the absorbance 458 nm at the end of the experiment (i.e. respectively 500 or 180 minutes as described here above), showing the percentage of NEET protein still able to bind a Fe—S cluster.
(§6) Analysis of the absorbance enables the time for which 50% loss of bound Fe—S cluster is reached (i.e. a 50% absorbance decrease at 458 nm) for each Test sample and each Control sample (in parenthesis table 4) to be determined. The data are then compared to determine whether the compound of the invention stabilizes or destabilizes the NEET protein/Fe—S cluster binding.

In assay [3] the target is T2, CISD2 Gene Product (NAF-1) (Homo sapiens, UniProt Q8N5K1).
T2 sequence (Q8N5K1 57-135 limits assumed): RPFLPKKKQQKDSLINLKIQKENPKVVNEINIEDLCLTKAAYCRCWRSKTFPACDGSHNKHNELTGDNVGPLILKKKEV
Described as above. It is filed as biochemical. The note with it: for Time (in minutes) to achieve 50% loss of bound cluster (Absorbance 458 nm) / Residual cluster bound at end of experiment (Percentage Absorbance 458 nm at time zero): NAF-1 20 μM, compound 60 μM; for Time (in minutes) to achieve 50% loss of bound cluster (Absorbance 458 nm): pH 6, 37° C., run time 500 minutes, vehicle control 310 or 210; for Residual cluster bound at end of experiment (Percentage Absorbance 458 nm at time zero): pH 6, at 500 minutes, vehicle control 3%; for Stabiliser or destabiliser of Fe-S cluster binding by CISD2 Gene Product (NAF-1): time to 50% cluster loss changed by more than 25% compared to the Control sample, at the concentrations tested. On the procedure:
as §1, §2, §3, §4, §5, §6

Assay [4] deals with T3, CISD3 Gene Product (Miner2) (Homo sapiens, UniProt P0C7P0).
T3 sequence (P0C7P0 15-127): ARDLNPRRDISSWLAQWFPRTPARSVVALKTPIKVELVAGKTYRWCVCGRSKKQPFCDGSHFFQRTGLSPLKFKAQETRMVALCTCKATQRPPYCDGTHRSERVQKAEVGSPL
The assay is described as above. It is filed as biochemical. The conditions noted are these: for Residual cluster bound at end of experiment (Percentage Absorbance 458 nm at time zero): CISD3 gene product 20 μM, pH 6, at 180 minutes, vehicle control 11%; for Stabiliser or destabiliser of Fe-S cluster binding by CISD3 Gene Product (Miner2): time to 50% cluster loss changed by more than 25% compared to the Control sample, at the concentrations tested. As for the experimental part:
as §1, §2, §3, §4, §5, §6

The subject of assay [5] is UXF 1138. The assay can be described thus: Cytotoxicity, propidium iodide based monolayer assay. The conditions noted are these: 96 h; UXF 1138 uterine sarcoma, four days of treatment, T/C=50%; read-out: Absolute IC50. The format is cell-based. On the procedure:
The cytotoxicity was tested for compounds of the invention on five different cell-lines, namely LXFL 1121, MAXF 401, MMXF L-636, PRXF PC-3M and UXF 1138 which are respectively lung large cell carcinoma, breast adeno carcinoma, multiple myeloma, prostate adeno carcinoma and uterine sarcoma.
A working stock solution of the test compounds was prepared in DMSO at a concentration of 33 mM or 8.25 mM, and small aliquots were stored at −20° C. On each day of an experiment, a frozen aliquot of the working stock solution was thawed and stored at room temperature prior to and during treatment.
All liquid handling steps were performed using the Tecan Freedom EVO 200 platform. First, serial 2-fold dilutions of the 33 mM DMSO working stock solution were done in DMSO. The DMSO dilutions were then diluted 1:22 into cell culture medium in an intermediate dilution plate. Finally, 10 μl taken from the intermediate dilution plate were transferred to 140 μl/well of the final assay plate. Thus, the DMSO serial dilutions were diluted 1:330 with cell culture medium, and the DMSO concentration in the assay was 0.3% v/v.
Cell lines were routinely passaged once or twice weekly and maintained in culture for up to 20 passages. Most cell lines were grown at 37° C. in a humidified atmosphere with 5% CO2 in RPMI 1640 medium (25 mM HEPES, with L-glutamine, #FG1385, Biochrom, Berlin, Germany) supplemented with 10% (v/v) fetal calf serum (Sigma, Taufkirchen, Germany) and 0.05 mg/mL gentamicin (Life Technologies, Karlsruhe, Germany).
A modified propidium iodide (PI) based monolayer assay was used to assess the anti-cancer activity of the compounds. Briefly, cells were harvested from exponential phase cultures, counted and plated in 96 well flat-bottom microtiter plates at a cell density of 4,000 to 40,000 cells/well dependent on the cell line's growth rate. The individual seeding density for each cell line ensure exponential growth conditions over the whole or at least the bigger part of the treatment period. After a 24 h recovery period, to allow the cells to resume exponential growth, 10 μl of culture medium (6 control wells/cell line/plate) or of culture medium with test compounds were added. Compounds were applied at ten concentrations in 2-fold increments in duplicates up to 25 μM or 100 μM and treatment continued for four days. After four days of treatment, cells were next washed with 200 μl PBS to remove dead cells and debris, then 200 μl of a solution containing 7 μg/ml propidium iodide (PI) and 0.1% (v/v) Triton X-100 was added. After an incubation period of 1-2 hours at room temperature, fluorescence (FU) was measured using the Enspire Multimode Plate Reader (excitation λ=530 nm, emission k=620 nm) to quantify the amount of attached viable cells.
Drug effects were expressed in terms of the percentage of the fluorescence signal, obtained by comparison of the mean signal in the treated wells with the mean signal of the untreated controls (expressed by the test-versus-control value, T/C−value [%]):
[formula] IC values reported reflect the concentration of the test compound that achieves T/C=50%. Calculation was done by 4 parameter non-linear curve fit.

Assay [6] concerns NFκB. The assay can be described thus: NFκB reporter assay, TNFα stimulation of A549 NFκB-NanoLuciferase reporter cells. It is filed as cell-based. The note with it: Homo sapiens, 4 ng/ml TNFα, NanoGlo luciferase assay 6 hours later. The source says: Compounds of the present invention have been tested for their capacity to inhibit NFκB.
The NFκB reporter construct was made by cloning 5 NFκB responsive elements upstream of a NanoLuciferase reporter gene flanked by AAVS1 genomic sequences.
NFκB Responsive element fused with NanoLuciferase and SV40 late Poly(A) signal was amplified from pNL3.2-NFκB-Nluc (Promega) using NFKB-NLUC-F and NFKB-NLUC-R primers and inserted by Infusion (TaKaRa) in AAVS1 SA-2A-puro-pA donor plasmid (Hockemeyer et al, Nat Biotechnol. 2009, 27, 851-7) digested by Sal1. pCRISPR AAVS1-T2 expressing a guide RNA (gRNA) to target human AAVS1 (T2 target sequence) was constructed by inserting AAVS1-T2A hybridized primers in pLentiCRISPR v2-blast (Sanjana et al, Nat Methods. 2014, 11, 783-4) digested by Bsmbl.
A549 cells were transfected by the plasmids and puromycine selected for 5 days (1 μg mL-1). Then clones were obtained by limiting dilution and selected to maximize TNF dependent NFκB-NanoLuciferase induction.
The reporter cells were seeded on a 96-well plate for overnight with DMEM including 10% FBS. Test compounds were added at varying concentrations. The cells then were treated with 4 ng/ml TNFα (Peprotech, ref E251) in DMEM+10% FBS. NanoGlo luciferase assay (Promega) was carried out 6 hours later. Luminescence was measured using a Spark 20M spectrofluorimeter (Tecan). Values were normalized to the luminescence measured in untreated cells.
For orientation: A reporter such as luciferase makes a cellular process visible.

Take `COCCNc1ccc(C(=O)Nc2sc3c(c2C(=O)O)CC(C)(C)CC3(C)C)cc1` [Compound #60, 2-[[4-(2-Methoxyethylamino)benzoyl]amino]-5,5,7,7-tetramethyl-4,6-dihydrobenzothiophene-3-carboxylic acid]: the figures for the IC50 in assay [1] and in assay [5] were 10 nM and 851 nM, respectively. Besides, the “Time (in minutes) to achieve 50% loss of bound cluster (Absorbance 458 nm)” value in assay [2] is recorded as 100 (80) minutes; in assay [3], 120 (310) minutes; in assay [4] (Miner2 20 μM, compound 60 μM, pH 6, 37° C., run time 180 minutes, vehicle control 60), 90 (60) minutes. Further, the entries for the “Residual cluster bound at end of experiment (Percentage Absorbance 458 nm at time zero)” value in assay [2], in assay [3] and in assay [4] (compound 60 μM) were 35% (16%), 12% (3%) and 38% (11%), respectively. In assay [2] (time to 50% cluster loss changed by more than 25% compared to the Control sample, at the concentrations tested), the “Stabiliser or destabiliser of Fe-S cluster binding by CISD1 Gene Product (mitoNEET)” value was “stabilisers”. Besides, in assay [3], the “Stabiliser or destabiliser of Fe-S cluster binding by CISD2 Gene Product (NAF-1)” value is “destabilisers”. Also, in assay [4], the “Stabiliser or destabiliser of Fe-S cluster binding by CISD3 Gene Product (Miner2)” value is “Stabilisers”.

`CC1(C)CCc2sc(NC(=O)c3ccc(NCC4CCOCC4)cc3)c(C(=O)O)c2C1` [#164, 5,5-Dimethyl-2-[[4-(tetrahydropyran-4-ylmethylamino)benzoyl]amino]-6,7-dihydro-4H-benzothiophene-3-carboxylic acid] had an IC50 in assay [1] of 16 nM. This molecule also registered an EC50 in assay [6] of 90 nM.

In turn, `CC1(C)Cc2c(sc(NC(=O)c3ccc(NCC4CCOCC4)cc3)c2C(=O)O)C(C)(C)C1` [Compound #132, 5,5,7,7-Tetramethyl-2-[[4-(tetrahydropyran-4-ylmethylamino)benzoyl]amino]-4,6-dihydrobenzothiophene-3-carboxylic acid] showed an IC50 in assay [1] of 1.7 nM. Besides, in assay [2], the “Time (in minutes) to achieve 50% loss of bound cluster (Absorbance 458 nm)” value was 90 (80) minutes and the “Residual cluster bound at end of experiment (Percentage Absorbance 458 nm at time zero)” value is given as 19% (16%). In addition, in assay [3], the “Time (in minutes) to achieve 50% loss of bound cluster (Absorbance 458 nm)” value is 210 (310) minutes, the “Residual cluster bound at end of experiment (Percentage Absorbance 458 nm at time zero)” value is on record as 19% (3%) and the “Stabiliser or destabiliser of Fe-S cluster binding by CISD2 Gene Product (NAF-1)” value is “destabilisers”. The “Residual cluster bound at end of experiment (Percentage Absorbance 458 nm at time zero)” value in assay [4] (compound 60 μM) is listed as 50% (11%). The “Stabiliser or destabiliser of Fe-S cluster binding by CISD3 Gene Product (Miner2)” value in assay [4] is recorded as “Stabilisers”. The molecule also registered a half-maximal effective concentration (EC50) in assay [6] of 40 nM.

As for `CC1(C)Cc2c(sc(NC(=O)c3ccccc3)c2C(=O)O)C(C)(C)C1` [Compound #33, 2-Benzamido-5,5,7,7-tetramethyl-4,6-dihydrobenzothiophene-3-carboxylic acid], in assay [1], the midpoint of inhibition, the IC50, lay at 34.6 nM. The same molecule returned an EC50 in assay [6] of 400 nM.

The term IC50 denotes the concentration that inhibits the measured activity by half. A word on the EC50: it is the concentration that produces a half-maximal response. A low value points to higher potency in that assay.
